Paper PMC3929365, “Benzimidazoisoquinolines: A New Class of Rapidly Metabolized Aryl Hydrocarbon Receptor (AhR) Ligands that Induce AhR-Dependent Tregs and Prevent Murine Graft-Versus-Host Disease” (PLoS ONE, 2014)

Columns and labels:
CYP1A1 mRNA = test: Hepatic CYP1A1 mRNA induction after single i.p. dose; assay type: in vivo, C57BL/6 mice; settings: 10 mg/kg i.p.
Protocol: RNA was isolated from lymph nodes of B6D2F1 host mice with the RNeasy Mini Kit (Qiagen). cDNA was prepared from at least 1 µg RNA in a 2-step reaction using the ReactionReady First Strand cDNA synthesis kit (SA Biosciences) according to the manufacturer’s instructions and Superscript III reverse-transcriptase (Life Technologies). The qPCR reaction was carried out on an ABI PRISM 7500 Real-Time PCR system (Applied Biosystems). The reaction mixture consisted of SYBR Green/ROX qPCR Master Mix (SA Bioscience), 2–10 ng-RNA equivalent cDNA and 1 µl of the gene-specific commercial primer sets (SA Biosciences). The following conditions were used: 10 min at 95°C (1 cycle), 15 s at 95°C and 1 min at 60°C (40 cycles). The melt-curve was generated at 95°C for 15 s. The process was validated by utilizing a no-reverse-transcriptase control. The raw data was normalized to Actb and the fold-change was calculated by the ΔΔCt method using vehicle-treated sample values as the control.
Figure 2 Pharmacokinetics of 10-Cl-BBQ. C57BL/6 mice were given 10 mg/kg 10-Cl-BBQ by i.p. injection. A) Blood was collected at the indicated times by cardiac puncture. The serum was processed to remove protein and the samples were analyzed by QTRAP 4000 LC/MS/MS. The serum concentration of 10-Cl-BBQ was determined from a standard curve based on known concentrations of 10-Cl-BBQ. B) Liver tissue was harvested and processed for mRNA analysis. CYP1A1 gene expression was determined relative to the β-actin gene, and the fold-induction was determined by the ΔΔCt method using the vehicle-treated samples as a control. The mean values are shown with SEM for 2–3 mice per time point.

AhR [1] = test: Cytosol to nuclear translocation of AhR in Hepa-1 cells; assay type: cell-based, mouse; settings: 10 nM, 1 h
AhR [2] = test: Electrophoretic mobility shift assay, binding of AhR to XRE; assay type: biochemical, mouse; settings: 10 nM, 2 h, Hepa1c1c7 whole cell lysate
Protocol: (§1) Figure 1 10-Cl-BBQ is a potent AhR ligand. A) Structure of 10-Cl-BBQ. […] C) Hepa-1 cells expressing endogenous AhR were transfected with an AhR-regulated luciferase reporter gene (xenobiotic responsive element (XRE)-MMTVpromoter-Luc) and the reporter gene activity was measured after 12 h of treatment with 1 nM TCDD or the indicated concentrations of 10-Cl-BBQ. D) Alteration in proteolytic pattern of AhR by 10-Cl-BBQ. Whole cell lysate (45 µg of protein) from mouse hepatoma Hepa1c1c7 cells was incubated with 100 nM 10-Cl-BBQ or 0.1% DMSO for 1 h at RT and proteolyzed by 1 µg/ml subtilisin for 1, 2, 4, and 8 min at RT. Proteolytic cleavage products of AhR were analyzed by immunoblot. E) Electrophoretic mobility shift assay showing the ligand-stimulated binding of AhR to XRE. Whole cell lysate (18 µg of protein) from mouse hepatoma Hepa1c1c7 cells was incubated with 10 nM 10-Cl-BBQ or 0.1% DMSO for 2 h at room temperature and ^32P-labeled oligonucleotide containing XRE for 20 min at room temperature. The samples were electrophoresed on a native polyacrylamide gel and the signal was visualized by Phosphor Imager. Unlabeled competitor XRE or antibody (Ab) against AhR or Arnt was co-incubated with ^32P-labeled oligonucleotide.

GVHD = test: Graft-versus-host disease (GVHD) model, 15 days; assay type: in vivo; settings: for GVHD pathology (clinical pathology score): 10 mg/kg then 2 mg/kg/day, day 15
Protocol: Splenocytes and lymphocytes were harvested from C57Bl/6 mice. In some experiments, T cells were purified by negative selection using a Pan-T kit (Miltenyi Biotec) and stained with 2 µM carboxyfluorescein succinimidyl ester (CFSE) (Life Technologies). At least 2×10^7 purified T cells or approximately 1×10^8 pooled splenocytes and lymphocytes were injected i.v. into B6D2F1 host mice to initiate the GVH response. GVHD pathology was assessed on a scale of 0 to 3 (0 = normal, 1 = moderate morbidity, 2 = severe morbidity, 3 = death) according to the following five criteria: weight-loss, posture, activity, fur texture and death and reported as a Clinical GVHD Score.
Host mice were treated daily with vehicle, 10-Cl-BBQ or BBQ analogues by i.p. injection. The vehicle consisted of a mixture of 6.7% anisole and peanut oil. Mice treated with a single i.p. dose of 15 µg TCDD/kg body weight in the same vehicle were used as positive controls.
Figure 4 10-Cl-BBQ suppresses GVHD in an AhR-dependent manner. A) B6D2F1 host mice were injected with wild-type (WT) or AhR-deficient (AhR^−/−) splenocytes to initiate the GVH response; mice were given 10-Cl-BBQ or vehicle treatments daily for 15 days. A single loading dose of 10 mg/kg 10-Cl-BBQ was given at the time of donor cell injection and a maintenance dose of 2 mg/kg was given every day thereafter until the end of the experiment. The progression of GVHD was monitored and a clinical pathology score as defined in Methods was calculated. GVHD was suppressed by 10-Cl-BBQ only if the donor cells expressed AhR. In a separate study, B6D2F1 host mice in groups of 6 were injected with splenocytes from C57Bl/6 mice to initiate the GVH response, and treated with 10-Cl-BBQ or vehicle daily for 15 days as in (A). TCDD (15 µg/kg) was given to an additional group of 6 mice on day 0 as a positive control. […] The donor cells were identified in the host spleen as the H-2D^d negative population.* = p<0.05 vs vehicle control. TEXT PRINTED IN THE PICTURE: (C) TCDD: 17 | (C) 10-Cl-BBQ: 11 | (E) TCDD: 29 | (E) 10-Cl-BBQ: 35 DOUBTS OF THE COPYIST ABOUT THIS PICTURE: Panels C and E: the numbers inside the flow cytometry plots are printed without any measure or unit, so they are copied as bare numbers (plot axes: CD44 vs CD45RB in C, CD19 vs H-2D^d in E). / The Vehicle control plots also print numbers (C: 36; E: 2). They are not listed in lines because Vehicle is a control, not a substance.

AhR [3] = test: AhR-regulated (XRE) luciferase reporter gene assay in Hepa-1 cells; assay type: cell-based, mouse; settings: nanomolar concentrations, 12 h, Hepa-1 cells
Protocol: as §1
The mean luciferase activity is shown with SEM. […] 3-MC binding to AhR.

O=c1c2cccc3cccc(c32)c2nc3ccc(Cl)cc3n12 [10-Cl-BBQ, 10-chloro-7H-benzimidazo[2,1-a]benzo[de]isoquinolin-7-one]
Cyp1a1 mRNA induction in hepatic tissue (CYP1A1 mRNA; 4 hours): 2 fold
Cyp1a1 mRNA induction in hepatic tissue (CYP1A1 mRNA; 20 hr): up to 7 fold
Cyp1a1 mRNA induction in hepatic tissue (CYP1A1 mRNA; 48 h): no longer apparent
cytosol to nuclear translocation of AhR (AhR [1]): promoted cytosol to nuclear translocation of AhR
DNA binding of AhR (XRE) (AhR [2]): specifically induced DNA binding of AhR
GVHD pathology (clinical pathology score) (GVHD; AhR-deficient donor cells): not affected
GVHD pathology (clinical pathology score) (GVHD; AhR-wild type donor cells): significantly reduced
overt toxicity (GVHD; daily treatment during the GVH response): without overt toxicity
engraftment of donor cells in host spleen (GVHD; day 15, 10 mg/kg then 2 mg/kg daily): significantly reduced the engraftment of donor cells
activation of the AhR-regulated reporter gene (AhR [3]): activated the AhR-regulated reporter gene
